Data on 40 compounds can be found in patent US8053439B2, “Benzophenone derivatives useful for inhibiting formation of microtubule” (Chong Kun Dang Pharmaceutical Corp., priority 2006, dated 2011).

The first experiment concerns HL60 cells. Kind of experiment: Inhibition effect of HL60 cell line growth (MTT, 3 days). It is filed as cell-based. Particulars: Homo sapiens, HL-60, 72 h, read-out: HL60 Growth Inhibition. As to the method:
1. Inhibition Effect of HL60 Cell Line Growth
A 10% FBS-contained RPMI1640 badge was used for culturing HL60 cells. The test substance was prepared by dissolving in DMSO to a concentration of 10 mg/ml, and continuously diluting with PBS to a final concentration of 100 μg/ml to 0.03 μg/ml. In a 96-well microplate, 180 μl of the badge containing 6.0×10^4 cells/ml of cells and 20 μl of continuously diluted test substance were added. The mixture was cultured at 37° C. with 5% CO2 atmosphere for 3 days. After completion of the cultivation, 50 μl of a solution of 1.25 mg/ml MTT (3-(4,5-dimethylthiazol-2-yl)-2,5-diphenyltetrazolium bromide) dissolved in PBS was added to all wells, and the resulting mixture was reacted at 37° C. for 3 hours. Thus formed formazan crystals were dissolved in 150 μl of DMSO, and an absorbance was measured at 570 nm.
As to `COc1ccc(-c2cccnc2)cc1C(=O)c1cc(OC)c(OC)c(OC)c1` [Compound 200, (2-methoxy-5-(pyridin-3-yl)phenyl)(3,4,5-trimethoxyphenyl)methanone], the IC50 amounted to 130 nM.

Consider `COc1cc(C(=O)c2cc(-c3ccco3)cc(OC)c2OC)cc(OC)c1OC` [Compound 206, (5-(furan-2-yl)-2,3-dimethoxyphenyl)(3,4,5-trimethoxyphenyl)methanone], for which the IC50 amounted to 145 nM.

For the compound `COc1ccc(-c2ccc(N)c(C(=O)c3cc(OC)c(OC)c(OC)c3)c2)cc1` [Compound 226, (4-amino-4′-methoxybiphenyl-3-yl)(3,4,5-trimethoxyphenyl)methanone], the IC50 is 370 nM.

Turning to `COc1cc(C(=O)c2cc(-c3nccs3)ccc2N)cc(OC)c1OC` [Compound 278, (2-amino-5-(thiazol-2-yl)phenyl)(3,4,5-trimethoxyphenyl)methanone], the IC50 came to 30 nM.

Staying with this experiment, now noted: Homo sapiens, HL-60, 72 h; HL60 cells, 3 days culture, MTT, absorbance 570 nm; read-out: HL60 Growth Inhibition.
As for `COc1ccc(-c2ccco2)cc1C(=O)c1cc(OC)c(OC)c(OC)c1` [Compound 203, (5-(furan-2-yl)-2-methoxyphenyl)(3,4,5-trimethoxyphenyl)methanone], the IC50 came to 35 nM.

With `COc1ccc(-c2ccc(OC)c(C(=O)c3cc(OC)c(OC)c(OC)c3)c2)cc1` [Compound 213, (4,4′-dimethoxybiphenyl-3-yl)(3,4,5-trimethoxyphenyl)methanone], the IC50 was 137 nM.

In the case of `COc1cc(C(=O)c2cc(-c3ccco3)ccc2[N+](=O)[O-])cc(OC)c1OC` [Compound 224, (5-(furan-2-yl)-2-nitrophenyl)(3,4,5-trimethoxyphenyl) methanone], the IC50 was 110 nM.

On to `COc1cc(C(=O)c2cc(-c3ccco3)ccc2N)cc(OC)c1OC` [Compound 225, (2-amino-5-(furan-2-yl)phenyl)(3,4,5-trimethoxyphenyl)methanone], for which the IC50 was found to be 58 nM.

As for `COc1cc(C(=O)c2cc(-c3ccco3)ccc2NC(C)=O)cc(OC)c1OC` [Compound 231, N-(4-(furan-2-yl)-2-(3,4,5-trimethoxybenzoyl)phenyl)acetamide], the IC50 is 120 nM.

For `COc1cc(C(=O)c2cc(-c3ccco3)ccc2NS(C)(=O)=O)cc(OC)c1OC` [Compound 235, N-(4-(furan-2-yl)-2-(3,4,5-trimethoxybenzoyl)phenyl)methanesulfonamide], the IC50 worked out at 280 nM.

For `COc1cc(C(=O)c2cc(-c3ccco3)ccc2NC(=O)CN)cc(OC)c1OC` [Compound 237, 2-amino-N-(4-(furan-2-yl)-2-(3,4,5-trimethoxybenzoyl)phenyl)acetamide], the IC50 is 270 nM.

`C=CCNc1ccc(-c2ccco2)cc1C(=O)c1cc(OC)c(OC)c(OC)c1` [Compound 238, (2-(allylamino)-5-(furan-2-yl)phenyl)(3,4,5-trimethoxyphenyl)methanone]: the IC50 is 340 nM.

As for `COc1cc(C(=O)c2cc(-c3ccco3)ccc2OS(C)(=O)=O)cc(OC)c1OC` [Compound 241, methanesulfonic acid 4-(furan-2-yl)-2-(3,4,5-trimethoxybenzoyl)phenyl], the IC50 came out at 90 nM.

In the case of `COc1ccc(-c2ccco2)cc1C(=O)c1cc(CO)c(OC)c(OC)c1` [Compound 249, (5-(furan-2-yl)-2-methoxyphenyl)(3-(hydroxymethyl)-4,5-dimethoxyphenyl)methanone], the IC50 came out at 120 nM.

As to `COc1ccc(-c2ccco2)cc1C(=O)c1cc(C)c(OC)c(C)c1` [Compound 264, (5-(furan-2-yl)-2-methoxyphenyl)(4-methoxy-3,5-dimethylphenyl)methanone], the IC50 is 480 nM.

In the case of `COCOc1c(C)cc(C(=O)c2cc(-c3ccco3)ccc2OC)cc1C` [Compound 265, (5-(furan-2-yl)-2-methoxyphenyl)(4-(methoxymethoxy)-3,5-dimethylphenyl)methanone], the IC50 turned out to be 390 nM.

On to `C=CCc1cc(C(=O)c2cc(-c3ccco3)ccc2OC)cc(OC)c1O` [Compound 269, (3-allyl-4-hydroxy-5-methoxyphenyl)(5-(furan-2-yl)-2-methoxyphenyl)methanone], for which the IC50 came to 1690 nM.

With `COc1cc(C(=O)c2ccc(-n3cncn3)cc2N)cc(OC)c1OC` [Compound 272, (2-amino-4-(1H-1,2,4-triazol-1-yl)phenyl)(3,4,5-trimethoxyphenyl)methanone], the IC50 was determined as 1340 nM.

With `COc1cc(C(=O)c2cc(-c3nccs3)ccc2NC(C)=O)cc(OC)c1OC` [Compound 277, N-(4-(thiazol-2-yl)-2-(3,4,5-trimethoxybenzoyl)phenyl)acetamide], the IC50 was 110 nM.

With `COc1cc(C(=O)c2cc(-c3cccs3)ccc2NC(C)=O)cc(OC)c1OC` [Compound 279, N-(4-(thiophen-2-yl)-2-(3,4,5-trimethoxybenzoyl)phenyl)acetamide], the IC50 stood at 130 nM.

As for `CNc1ccc(-c2ccco2)cc1C(=O)c1cc(OC)c(OC)c(OC)c1` [Compound 282, (5-(furan-2-yl)-2-(methylamino)phenyl)(3,4,5-trimethoxyphenyl)methanone], the IC50 was determined as 150 nM.

As to `COc1cc(C(=O)c2cc(-c3cccs3)ccc2N)cc(OC)c1OC` [Compound 283, (2-amino-5-(thiophen-2-yl)phenyl)(3,4,5-trimethoxyphenyl)methanone], the IC50 is 48 nM.

As for `COc1cc(C(=O)c2cc(-c3nccs3)ccc2N)cc(CO)c1OC` [Compound 286, (2-amino-5-(thiazol-2-yl)phenyl)(3-(hydroxymethyl)-4,5-dimethoxyphenyl)methanone], the IC50 amounted to 70 nM.

For `COc1cc(C(=O)c2cc(-c3ncco3)ccc2N)cc(OC)c1OC` [Compound 289, (2-amino-5-(oxazol-2-yl)phenyl)(3,4,5-trimethoxyphenyl)methanone], the IC50 was found to be 7 nM.

On to `COc1cc(C(=O)c2cc(-c3ccccn3)ccc2N)cc(OC)c1OC` [Compound 293, (2-amino-5-(pyridin-2-yl)phenyl)(3,4,5-trimethoxyphenyl)methanone], for which the IC50 is 17 nM.

For the compound `COc1cc(C(=O)c2cc(-c3ncco3)ccc2NC(C)=O)cc(OC)c1OC` [Compound 296, N-(4-(oxazol-2-yl)-2-(3,4,5-trimethoxybenzoyl)phenyl)acetamide], the IC50 came to 1230 nM.

For the compound `COc1cc(C(=O)c2cc(-c3csc(N)n3)ccc2N)cc(OC)c1OC` [Compound 297, (2-amino-5-(2-aminothiazol-4-yl)phenyl)(3,4,5-trimethoxyphenyl)methanone], the IC50 amounted to 35 nM.

Take `COc1cc(C(=O)c2cc(-c3csc(C)n3)ccc2N)cc(OC)c1OC` [Compound 298, (2-amino-5-(2-methylthiazol-4-yl)phenyl)(3,4,5-trimethoxyphenyl)methanone]: the IC50 was found to be 160 nM.

As to `COc1cc(C(=O)c2cc(-c3ccsc3)ccc2NC(C)=O)cc(OC)c1OC` [Compound 300, N-(4-(thiophen-3-yl)-2-(3,4,5-trimethoxybenzoyl)phenyl)acetamide], the IC50 amounted to 170 nM.

Turning to `COc1cc(C(=O)c2cc(-c3ccsc3)ccc2N)cc(OC)c1OC` [Compound 301, (2-amino-5-(thiophen-3-yl)phenyl)(3,4,5-trimethoxyphenyl)methanone], the IC50 worked out at 80 nM.

As to `COc1cc(C(=O)c2cc(-c3nccs3)ccc2NS(C)(=O)=O)cc(OC)c1OC` [Compound 308, N-(4-(thiazol-2-yl)-2-(3,4,5-trimethoxybenzoyl)phenyl)methanesulfonamide], the IC50 came to 190 nM.

For `COc1cc(C(=O)c2cc(-c3nccs3)ccc2NC=O)cc(OC)c1OC` [Compound 316, N-(4-(thiazol-2-yl)-2-(3,4,5-trimethoxybenzoyl)phenyl)formamide], the IC50 came out at 140 nM.

`COc1cc(C(=O)c2cc(-c3ccco3)ccc2-n2cncn2)cc(OC)c1OC` [Compound 322, (5-(furan-2-yl)-2-(1H-1,2,4-triazol-1-yl)phenyl)(3,4,5-trimethoxyphenyl)methanone]: the IC50 was determined as 170 nM.

For `COc1cc(C(=O)c2cc(-c3ccco3)ccc2NCCO)cc(OC)c1OC` [Compound 323, (5-(furan-2-yl)-2-(2-hydroxyethylamino)phenyl)(3,4,5-trimethoxyphenyl)methanone], the IC50 was found to be 170 nM.

On to `COc1cc(C(=O)c2cc(-c3ccco3)ccc2F)cc(OC)c1OC` [Compound 327, (2-fluoro-5-(furan-2-yl)phenyl)(3,4,5-trimethoxyphenyl)methanone], for which the IC50 was 90 nM.

Regarding `COc1cc(C(=O)c2cc(-c3ccccn3)ccc2NS(C)(=O)=O)cc(OC)c1OC` [Compound 335, N-(4-(pyridin-2-yl)-2-(3,4,5-trimethoxybenzoyl)phenyl)methanesulfonamide], the IC50 amounted to 220 nM.

For the compound `COc1cc(C(=O)c2cc(-c3cccc(N)c3)ccc2N)cc(OC)c1OC` [Compound 337, (4,5′-diaminophenyl-3-yl)(3,4,5-trimethoxyphenyl)methanone], the IC50 is 190 nM.

Take `COc1cc(C(=O)c2cc(-c3ccco3)ccc2NCCCO)cc(OC)c1OC` [Compound 341, (5-(furan-2-yl)-2-(3-hydroxypropylamino)phenyl)(3,4,5-trimethoxyphenyl)methanone]: the IC50 came out at 110 nM.

In the case of `COc1cc(C(=O)c2cc(-c3ccccn3)ccc2-n2cncn2)cc(OC)c1OC` [Compound 346, (5-(pyridin-2-yl)-2-(1H-1,2,4-triazol-1-yl)phenyl)(3,4,5-trimethoxyphenyl)methanone], the IC50 was 100 nM.

On to `COc1cc(C(=O)c2cc(-c3nccs3)ccc2-n2cncn2)cc(OC)c1OC` [Compound 347, (5-(thiazol-2-yl)-2-(1H-1,2,4-triazol-1-yl)phenyl)(3,4,5-trimethoxyphenyl)methanone], for which the IC50 amounted to 30 nM.
